Test results published in the supplement of paper PMC10307832.

How the values were obtained:
Assay in all cases: relative viability (nuclei count vs DMSO), 5 days (fraction); higher = more cells survive
[1] = compound: O=C(O)C(Cc1ccccc1[N+](=O)[O-])=NNc1nc(-c2ccc(Cl)c(Cl)c2)cs1 (mixture of isomers) [4EGI-1] + Cc1nc(NC(=O)N2CCC[C@H]2C(N)=O)sc1-c1ccnc(C(C)(C)C(F)(F)F)c1 [Alpelisib] (partner 2 µM)
How it was run: (§1)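 Values are medians from duplicate plates. Each reflects relative viability, defined as the nuclei count of treated wells over that of vehicle wells. Lung cancer cell lines in 1536-well plates were pin-tool dosed one day after seeding with one drug alone or with a fixed anchor-drug dose plus five library-drug doses (not always all listed) in √10 steps, then fixed, stained and imaged at 4× after 5 days.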

[2] = compound: CN1CCN(CC1)C2=CC(=C(C=C2)NC3=NC=C4C(=N3)N(C5=CC=CC=C5C(=O)N4C)C)OC [XMD8-85] + NC(=O)Nc1cc(-c2cccc(F)c2)sc1C(=O)N[C@H]1CCCNC1 [AZD7762] (partner 0.2 µM)
How it was run: as §1

[3] = compound: CN1CCN(CC1)C2=CC(=C(C=C2)NC3=NC=C4C(=N3)N(C5=CC=CC=C5C(=O)N4C)C)OC [XMD8-85] + Cc1cc(Nc2cc(N3CCN(C)CC3)nc(Sc3ccc(NC(=O)C4CC4)cc3)n2)n[nH]1 [Tozasertib] (partner 0.1 µM)
How it was run: as §1

[4] = compound: CN1CCN(CC1)C2=CC(=C(C=C2)NC3=NC=C4C(=N3)N(C5=CC=CC=C5C(=O)N4C)C)OC [XMD8-85] + COc1cccc2cc(-c3nc([C@H]4CC[C@H](C(=O)O)CC4)n4ncnc(N)c34)[nH]c12 [OSI-027] (partner 0.5 µM)
How it was run: as §1

Cell Line | relative viability ([1]; first compound 0.5 µM) | relative viability ([1]; first compound 1.581 µM) | relative viability ([1]; first compound 5 µM) | relative viability ([1]; first compound 15.81 µM) | relative viability ([1]; first compound 50 µM) | relative viability ([2]; first compound 0.08 µM) | relative viability ([2]; first compound 0.253 µM) | relative viability ([2]; first compound 0.8 µM) | relative viability ([2]; first compound 2.53 µM) | relative viability ([2]; first compound 8 µM) | relative viability ([3]; first compound 0.08 µM) | relative viability ([3]; first compound 0.8 µM) | relative viability ([3]; first compound 2.53 µM) | relative viability ([3]; first compound 8 µM) | relative viability ([4]; first compound 0.08 µM) | relative viability ([4]; first compound 0.253 µM) | relative viability ([4]; first compound 0.8 µM) | relative viability ([4]; first compound 2.53 µM) | relative viability ([4]; first compound 8 µM) | relative viability ([3]; first compound 0.253 µM)
BEN | 1.05 | 1.17 | 1.11 | 1.07 | 0.915 | 0.831 | 0.661 | 0.691 | 0.653 | 0.463 | 0.467 | 0.426 | 0.331 | 0.457 | 0.439 | 0.344 | 0.274 | 0.264 | 0.307 | 
SK-MES-1 | 0.968 | 0.735 | 0.911 | 0.773 | 0.827 |  |  |  |  |  | 0.998 |  | 0.81 | 0.276 | 0.533 | 0.657 | 0.608 | 0.525 | 0.457 | 0.939
NCI-H1623 |  |  |  |  |  |  |  |  |  |  | 0.495 | 0.41 | 0.421 | 0.367 | 0.44 | 0.395 | 0.349 | 0.413 | 0.368 | 0.336
IA-LM | 0.916 | 0.647 | 0.586 | 0.149 | 0.0833 |  |  |  |  |  |  |  |  |  |  |  |  |  |  | 
CAL-12T | 1.24 |  | 1.28 | 1.25 | 1.15 | 0.545 | 0.642 | 0.604 |  | 0.466 | 0.287 | 0.296 | 0.259 | 0.214 | 0.556 | 0.735 | 0.693 | 0.409 | 0.235 | 0.348
ABC-1 | 1.07 | 1.03 | 1.02 | 0.74 | 0.405 | 0.904 | 0.805 | 0.799 | 0.876 | 0.859 | 0.142 | 0.19 | 0.15 | 0.231 | 0.473 | 0.296 | 0.546 | 0.526 | 0.41 | 0.159
LCLC-97TM1 | 0.213 |  | 0.239 | 0.236 | 0.211 | 0.207 | 0.171 | 0.304 | 0.286 | 0.293 | 0.278 | 0.225 | 0.225 | 0.168 | 0.485 |  | 0.623 | 0.565 | 0.536 | 0.23
PC-14 | 1.05 |  | 0.906 |  | 0.941 | 0.352 | 0.364 | 0.34 | 0.394 | 0.18 | 0.556 | 0.541 | 0.463 | 0.397 | 0.835 | 0.971 | 0.776 |  | 0.373 | 0.529
NCI-H23 | 0.905 |  | 0.915 | 0.794 | 0.611 | 0.173 | 0.287 | 0.23 | 0.18 | 0.2 | 0.492 | 0.34 | 0.272 | 0.209 | 0.589 | 0.692 | 0.614 | 0.654 | 0.409 | 0.369
NCI-H727 | 0.676 | 0.54 | 0.625 | 0.478 | 0.366 | 0.768 | 0.619 | 0.465 | 0.576 | 0.42 | 0.55 | 0.6 | 0.458 | 0.47 | 0.631 | 0.772 | 0.705 | 0.535 | 0.359 | 0.588
A549 | 0.801 | 0.479 | 0.984 | 0.611 | 0.273 |  |  |  |  |  |  |  |  |  |  |  |  |  |  | 
COR-L 105 | 1.2 | 0.818 | 1.04 | 0.89 | 0.599 |  |  |  |  |  | 0.405 | 0.338 | 0.377 | 0.26 | 0.6 |  | 0.589 | 0.512 | 0.324 | 0.363
NCI-H650 | 1.15 |  | 1.25 | 1.15 | 0.92 | 0.92 | 0.991 | 1 | 0.829 | 0.781 | 0.738 | 0.68 | 0.608 | 0.338 | 0.564 | 0.527 | 0.467 | 0.492 | 0.338 | 0.713
NCI-H1975 | 0.673 | 0.81 | 0.702 | 0.627 | 0.469 | 0.742 | 0.656 | 0.661 | 0.653 | 0.547 | 0.701 | 0.763 | 0.485 | 0.145 | 0.53 | 0.678 | 0.807 | 0.762 | 0.445 | 0.721
NCI-H2023 | 0.578 |  | 0.582 | 0.41 | 0.264 |  |  |  |  |  | 0.266 | 0.432 | 0.335 | 0.163 | 0.314 | 0.434 | 0.402 | 0.37 | 0.248 | 0.355
EMC-BAC-2 | 0.733 | 0.628 | 0.72 | 0.485 | 0.656 | 1.16 | 1.03 | 1.04 | 1.1 | 0.789 | 0.293 | 0.285 | 0.239 | 0.224 | 0.358 | 0.385 | 0.368 | 0.404 | 0.313 | 0.275
LK-2 | 1.22 |  | 1.12 | 1.21 | 0.897 | 0.288 | 0.334 | 0.322 | 0.254 | 0.284 |  | 0.188 | 0.158 | 0.181 | 0.167 | 0.196 | 0.185 | 0.192 | 0.162 | 0.156
EPLC-272H | 0.98 | 0.868 | 0.905 | 0.911 | 0.873 | 0.209 | 0.16 | 0.362 | 0.229 | 0.273 | 0.294 | 0.557 | 0.281 | 0.25 | 0.282 | 0.251 | 0.266 | 0.305 | 0.27 | 0.241
HCC-366 | 0.642 | 0.364 | 0.399 | 0.5 | 0.331 | 0.216 | 0.311 | 0.335 | 0.336 | 0.259 | 0.138 | 0.0974 | 0.0608 | 0.0744 | 0.932 | 1.15 | 1.08 | 0.917 | 0.794 | 0.128
